Experimental data: US7432365B1, “DNA molecules encoding beta clamp proteins of gram positive bacteria” (priority 1998, dated 2008)

What was measured:
DnaE polymerase = assay: Inhibition of synthesis on SSB coated primed M13mp18 ssDNA by TMAU; type: biochemical, S. pyogenes
Experimental: (§1) To test DnaE for function with τδδ′ and β, replication reactions contained 70 ng (25 fmol) of 30-mer singly primed M13 mp18 ssDNA, 0.82 μg of S. pyogenes SSB, and 3.3 ng-300 ng of DnaE (25 fmol −2.3 pmol) in 23.5 μl of 20 mM Tris-HCl (pH 7.5), 4% glycerol, 0.1 mM EDTA, 5 mM dithiothreitol (DTT), 40 μg/ml BSA, 2 mM ATP, 8 mM MgCl2, and 60 μM each of dGTP and dCTP. When present, reactions included 43.3 ng of β and 10 ng of τδδ′. Reactions were preincubated for 3 min at 37° C., and then NaCl was added to 40 mM followed by another 2 min at 37° C. DNA synthesis was initiated upon addition of 1.5 μl of 1.5 mM dATP, 0.5 mM [α^32P]-dTTP (specific activity 2,000-4,000 cpm/pmol). Aliquots of 25 μl were removed at the indicated times and quenched with an equal volume (25 μl) of 1% SDS, 40 mM EDTA. One-half of the quenched reaction was analyzed for total deoxynucleotide incorporation using DE81 filter paper and the other half was analyzed on a 0.8% neutral agarose gel. The effect of TMAU was also examined, in which 100 μM TMAU in DMSO (2% DMSO final concentration) was present. In this case, replication was allowed to proceed for 1 min before being quenched with […] of 1% SDS, 40 mM EDTA.
(§2) Gram positive PolC is known to be inhibited by the antibiotic hydroxyphenylaza-uracil (“HPUra”) and its derivatives. In FIG. 21F, the PolC·τδδ′, β and DnaE were tested for inhibition of synthesis on SSB coated primed M13mp18 ssDNA by an HPUra derivative, trimethylanilino-uracil (“TMAU”).

PolC·τδδ′, β = target: T1, PolC·τδδ′, β (Streptococcus pyogenes, UniProt P0C0B7); assay: as above; type: biochemical, S. pyogenes; details: 100 μM TMAU, 2% DMSO, 1 min
T1 construct: made in house; host or cells: E. coli BL21(DE3) RecA-, pET11a (β: pET16b)
T1 sequence (P0C0B7 whole entry D425A/L426T/C427Y/G428V/L429V/S430F): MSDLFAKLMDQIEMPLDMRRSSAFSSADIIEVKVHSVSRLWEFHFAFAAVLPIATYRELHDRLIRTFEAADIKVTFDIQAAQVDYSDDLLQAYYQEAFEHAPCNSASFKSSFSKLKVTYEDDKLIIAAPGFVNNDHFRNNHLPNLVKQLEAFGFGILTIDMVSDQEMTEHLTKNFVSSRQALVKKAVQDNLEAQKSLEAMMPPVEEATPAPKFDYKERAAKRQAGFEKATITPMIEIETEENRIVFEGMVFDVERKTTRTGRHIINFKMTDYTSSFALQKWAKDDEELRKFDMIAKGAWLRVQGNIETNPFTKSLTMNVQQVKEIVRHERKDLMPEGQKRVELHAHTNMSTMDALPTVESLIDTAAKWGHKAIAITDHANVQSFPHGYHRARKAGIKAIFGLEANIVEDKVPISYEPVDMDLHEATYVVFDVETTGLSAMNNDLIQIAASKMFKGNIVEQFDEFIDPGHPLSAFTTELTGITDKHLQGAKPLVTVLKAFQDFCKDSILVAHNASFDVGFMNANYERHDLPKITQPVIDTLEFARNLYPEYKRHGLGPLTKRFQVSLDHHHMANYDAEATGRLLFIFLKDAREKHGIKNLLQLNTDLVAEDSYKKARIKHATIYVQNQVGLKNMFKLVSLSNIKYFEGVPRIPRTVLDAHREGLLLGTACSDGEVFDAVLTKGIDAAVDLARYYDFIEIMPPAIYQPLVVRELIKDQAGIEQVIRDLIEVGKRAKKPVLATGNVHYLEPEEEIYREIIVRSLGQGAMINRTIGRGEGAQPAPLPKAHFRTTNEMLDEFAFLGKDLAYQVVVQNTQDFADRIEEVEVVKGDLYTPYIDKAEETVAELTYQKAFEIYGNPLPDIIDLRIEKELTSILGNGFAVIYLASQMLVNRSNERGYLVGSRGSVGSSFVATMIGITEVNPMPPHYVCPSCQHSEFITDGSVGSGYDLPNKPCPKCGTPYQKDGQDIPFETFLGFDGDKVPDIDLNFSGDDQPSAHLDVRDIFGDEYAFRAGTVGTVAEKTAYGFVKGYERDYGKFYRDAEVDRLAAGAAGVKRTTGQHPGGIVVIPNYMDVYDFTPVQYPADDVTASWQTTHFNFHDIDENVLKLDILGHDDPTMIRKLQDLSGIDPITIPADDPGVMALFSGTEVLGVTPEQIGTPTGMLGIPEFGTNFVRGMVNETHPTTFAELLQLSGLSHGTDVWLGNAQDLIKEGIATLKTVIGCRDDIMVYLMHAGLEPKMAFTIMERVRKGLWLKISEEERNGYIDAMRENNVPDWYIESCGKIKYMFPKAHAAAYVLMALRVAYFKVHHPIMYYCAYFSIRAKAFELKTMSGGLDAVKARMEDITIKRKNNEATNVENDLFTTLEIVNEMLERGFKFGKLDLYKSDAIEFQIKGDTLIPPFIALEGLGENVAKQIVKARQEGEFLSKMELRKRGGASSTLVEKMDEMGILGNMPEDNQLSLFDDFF
Experimental: as §1, §2

Gram positive PolC = Gram positive PolC (Bacillus subtilis, UniProt P13267); details: known from the literature; cited from earlier work
Sequence of Gram positive PolC (P13267 whole entry): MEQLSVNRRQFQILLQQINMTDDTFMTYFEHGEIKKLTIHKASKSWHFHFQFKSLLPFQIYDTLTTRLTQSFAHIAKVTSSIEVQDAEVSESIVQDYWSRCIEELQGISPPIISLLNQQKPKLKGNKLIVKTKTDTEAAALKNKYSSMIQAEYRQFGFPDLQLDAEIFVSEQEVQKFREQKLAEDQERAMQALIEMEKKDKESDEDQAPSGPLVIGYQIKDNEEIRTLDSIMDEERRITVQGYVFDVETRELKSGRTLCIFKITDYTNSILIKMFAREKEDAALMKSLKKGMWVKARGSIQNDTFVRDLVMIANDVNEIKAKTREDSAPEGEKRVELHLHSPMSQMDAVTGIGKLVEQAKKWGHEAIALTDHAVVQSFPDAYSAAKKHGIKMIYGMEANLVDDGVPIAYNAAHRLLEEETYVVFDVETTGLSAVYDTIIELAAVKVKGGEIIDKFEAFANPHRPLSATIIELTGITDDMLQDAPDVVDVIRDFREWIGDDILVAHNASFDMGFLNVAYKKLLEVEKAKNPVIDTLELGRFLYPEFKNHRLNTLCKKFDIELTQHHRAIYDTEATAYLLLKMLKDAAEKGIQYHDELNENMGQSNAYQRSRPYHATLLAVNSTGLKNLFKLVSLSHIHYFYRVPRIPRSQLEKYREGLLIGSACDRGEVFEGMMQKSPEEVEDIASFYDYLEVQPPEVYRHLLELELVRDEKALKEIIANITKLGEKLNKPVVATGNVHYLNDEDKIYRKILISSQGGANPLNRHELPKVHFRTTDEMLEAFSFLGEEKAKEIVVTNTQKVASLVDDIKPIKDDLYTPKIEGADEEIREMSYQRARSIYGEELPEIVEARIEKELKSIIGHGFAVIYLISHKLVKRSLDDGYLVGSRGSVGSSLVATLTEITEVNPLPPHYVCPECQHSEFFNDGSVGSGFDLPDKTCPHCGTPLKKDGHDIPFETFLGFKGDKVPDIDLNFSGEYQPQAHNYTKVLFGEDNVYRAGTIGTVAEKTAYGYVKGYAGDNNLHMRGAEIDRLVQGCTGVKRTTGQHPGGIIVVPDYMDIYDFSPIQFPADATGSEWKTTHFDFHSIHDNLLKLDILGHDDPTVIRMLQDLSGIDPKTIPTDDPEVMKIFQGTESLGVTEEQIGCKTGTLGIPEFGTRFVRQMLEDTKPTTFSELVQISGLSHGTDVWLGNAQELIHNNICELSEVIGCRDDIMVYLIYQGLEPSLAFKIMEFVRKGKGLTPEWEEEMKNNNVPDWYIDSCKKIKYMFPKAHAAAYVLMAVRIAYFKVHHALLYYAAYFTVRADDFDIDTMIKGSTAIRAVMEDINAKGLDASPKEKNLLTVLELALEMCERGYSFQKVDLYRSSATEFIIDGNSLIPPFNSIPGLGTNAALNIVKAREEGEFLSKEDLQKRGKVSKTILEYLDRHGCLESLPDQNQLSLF

S. aureus Pol III-L = target: T2, S. aureus Pol III-L (Staphylococcus aureus, UniProt P0C1P9); assay: PolydA-oligodT replication assay, stimulation by beta; type: biochemical; details: linear polydA-oligodT template
T2 construct: made in house; host or cells: E. coli BL21(DE3), pET11PolC (β: pET16b)
Experimental: PolydA-oligodT was prepared as follows. […] OligodT35 was synthesized by Oligos etc.

E. coli Pol III core = E. coli Pol III core (Escherichia coli, UniProt P10443); details: linear polydA-oligodT template
Sequence of E. coli Pol III core (P10443 whole entry): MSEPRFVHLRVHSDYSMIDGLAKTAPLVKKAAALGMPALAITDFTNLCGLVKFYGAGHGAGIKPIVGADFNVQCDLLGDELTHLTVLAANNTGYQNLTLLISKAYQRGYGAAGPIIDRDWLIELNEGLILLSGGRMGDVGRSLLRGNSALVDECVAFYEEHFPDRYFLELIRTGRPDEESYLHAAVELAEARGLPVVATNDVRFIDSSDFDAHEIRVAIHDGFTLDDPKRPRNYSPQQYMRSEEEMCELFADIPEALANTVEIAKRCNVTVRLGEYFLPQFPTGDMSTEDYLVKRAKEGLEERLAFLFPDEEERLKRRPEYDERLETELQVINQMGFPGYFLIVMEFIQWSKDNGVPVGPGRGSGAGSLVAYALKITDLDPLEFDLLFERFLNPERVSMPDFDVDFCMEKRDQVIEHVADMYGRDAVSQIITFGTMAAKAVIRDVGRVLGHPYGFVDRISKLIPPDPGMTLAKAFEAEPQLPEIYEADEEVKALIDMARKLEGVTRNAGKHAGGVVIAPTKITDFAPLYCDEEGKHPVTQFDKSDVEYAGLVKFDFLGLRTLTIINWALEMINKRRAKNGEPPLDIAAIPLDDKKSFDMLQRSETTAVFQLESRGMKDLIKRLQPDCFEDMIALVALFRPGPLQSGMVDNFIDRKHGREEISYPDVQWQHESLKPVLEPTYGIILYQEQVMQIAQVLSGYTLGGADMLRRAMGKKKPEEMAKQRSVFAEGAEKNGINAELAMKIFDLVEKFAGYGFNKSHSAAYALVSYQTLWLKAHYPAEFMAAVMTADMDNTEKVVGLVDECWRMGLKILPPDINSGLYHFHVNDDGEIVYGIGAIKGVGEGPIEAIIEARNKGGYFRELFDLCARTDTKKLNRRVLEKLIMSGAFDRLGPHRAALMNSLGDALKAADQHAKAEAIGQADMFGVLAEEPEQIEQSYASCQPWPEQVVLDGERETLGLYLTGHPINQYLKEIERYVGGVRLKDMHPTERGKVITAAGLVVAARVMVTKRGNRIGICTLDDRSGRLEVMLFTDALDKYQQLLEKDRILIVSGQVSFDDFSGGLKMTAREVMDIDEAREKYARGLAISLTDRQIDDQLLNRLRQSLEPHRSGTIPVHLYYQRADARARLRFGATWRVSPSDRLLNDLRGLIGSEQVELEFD
Sequence of E. coli Pol III core (P03007 whole entry, further chain): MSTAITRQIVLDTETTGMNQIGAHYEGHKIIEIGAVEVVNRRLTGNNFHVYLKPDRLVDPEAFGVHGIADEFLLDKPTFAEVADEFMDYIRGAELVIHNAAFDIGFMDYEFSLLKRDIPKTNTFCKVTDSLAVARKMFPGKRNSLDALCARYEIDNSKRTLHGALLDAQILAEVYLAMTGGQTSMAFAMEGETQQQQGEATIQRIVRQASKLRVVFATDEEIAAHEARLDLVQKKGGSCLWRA
Sequence of E. coli Pol III core (P0ABS8 whole entry, further chain): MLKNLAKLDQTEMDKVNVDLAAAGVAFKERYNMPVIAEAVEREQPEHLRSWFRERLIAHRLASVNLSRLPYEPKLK
Text: DNA synthesis was quantitated using DE81 paper as described in Rowen et al., “Primase, the DnaG Protein of Escherichia coli. An Enzyme Which Starts DNA Chains,” J. Biol. Chem., 253:758-764 (1979), which is hereby incorporated by reference.

For O=c1cc(Nc2ccc3c(c2)CCC3)[nH]c(=O)[nH]1 [TMAU, trimethylanilino-uracil], the “Inhibition of synthesis (formation of RFII product)” value (from here on “Inhibition of synthesis”) (DnaE polymerase; 100 μM TMAU, in the presence of τδδ′/β) was “not affected”, the “Inhibition of synthesis” value (DnaE polymerase; TMAU, in the absence of τδδ′/β (not shown)) was “not affected” and the “Inhibition of synthesis” value (PolC·τδδ′, β) was “prevented from forming the RFII product”.

For O=c1cc(N=Nc2ccc(O)cc2)[nH]c(=O)[nH]1 [HPUra, hydroxyphenylaza-uracil], the “Inhibition of Gram positive PolC” value (Gram positive PolC) is given as “inhibited”.

B1: S. aureus beta: S. aureus beta subunit encoded by dnaN, SEQ. ID. No. 10, sliding clamp (protein)
chain: MMEFTIKRDYFITQLNDTLKAISPRTTLPILTGIKIDAKEHEVILTGSDSEISIEITIPKTVDGEDIVNISETGSVVLPGRFFVDIIKKLPGKDVKLSTNEQFQTLITSGHSEFNLSGLDPDQYPLLPQVSRDDAIQLSVKVLKNVIAQTNFAVSTSETRPVLTGVNWLIQENELICTATDSHRLAVRKLQLEDVSENKNVIIPGKALAELNKIMSDNEEDIDIFFASNQVLFKVGNVNFISRLLEGHYPDTTRLFPENYEIKLSIDNGEFYHAIDRASLLAREGGNNVIKLSTGDDVVELSSTSPEIGTVKEEVDANDVEGGSLKISFNSKYMMDALKAIDNDEVEVEFFGTMKPFILKPKGDDSVTQLILPIRTY
modifications: left off: small tags and cut ends
notes: ID; No. 10, sliding clamp
For B1, the “Stimulation of polymerase DNA synthesis” value (S. aureus Pol III-L) was 5-6 fold and the “Stimulation of polymerase DNA synthesis” value (E. coli Pol III core) was “about 5 fold”.
